The values below come from patent US20110183978A1, “Phenylpyri(mi)dinylazoles” (Bayer CropScience AG, priority 2009, published 2011).

One data set has as its system Alternaria solani. The experiment in a line: Example M: in vivo test on Alternaria solani (leaf blotch disease/tomato/protective). The following applies: 168 h, tomato, protective, 500 ppm active substance, assessed 7 days after inoculation, read-out: % Wirkungsgrad (activity level). The gist of the method: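 Alternaria solani infection on tomato scored 7 days post-inoculation. Before inoculation, young plants received a protective spray at the stated application dose; formulation was compound mixed with N,N-dimethylformamide and emulsifier, water-diluted.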

A further data set deals with Sphaerotheca fuliginea. The experiment in a line: Example L: in vivo test on Sphaerotheca fuliginea (powdery mildew on cucumber/protective). As to conditions: Podosphaera fuliginea, 168 h, cucumber, protective, assessment 7 days after inoculation, read-out: % Wirkungsgrad. The protocol: Solvent: 49 parts by weight N,N-dimethylformamide Emulsifier: 1 part by weight alkylaryl polyglycol ethers For the preparation of a suitable active substance preparation, 1 part by weight of active substance is mixed with the stated quantities of solvent and emulsifier and the concentrate is diluted to the desired concentration with water. For the testing for protective activity, young cucumber plants are sprayed with the active substance preparation at the stated application dosage. One day after the treatment, the plants are inoculated with a spore suspension of Sphaerotheca fuliginea. Next, the plants are placed in a greenhouse at 70% relative atmospheric humidity and a temperature of 23° C. 7 days after the inoculation, the assessment takes place.

By chromatographic logP is commonly meant a lipophilicity value derived from retention on a column.

`CCC(=O)Nc1cc(-c2cn(CCSC)nc2-c2ccc(F)cc2)ccn1` [Compound 300]: the pest or weed control at 500 ppm in the data set with Alternaria solani is 80%; in the data set with Sphaerotheca fuliginea, 90%. Besides, the chromatographic logP in “physchem” (LogPA) came out at 2.12.

Turning to `CC(C)C(=O)Nc1cc(-c2cn(Cc3ccccc3F)nc2-c2ccc(F)cc2)ccn1` [Compound 256], the figures for the pest or weed control at 500 ppm in the data set on Alternaria solani and with Sphaerotheca fuliginea were 94% and 92%, respectively. In addition, the chromatographic logP in “physchem” (LogPA) was found to be 3.03.

On to `CC(C)C(=O)Nc1cc(-c2cn(CCC#N)nc2-c2ccc(F)cc2)ccn1` [Compound 309], for which the pest or weed control at 500 ppm in the data set with Alternaria solani and in the data set on Sphaerotheca fuliginea was 100% throughout. The compound also came in with a chromatographic logP in “physchem” (LogPA) of 1.91.

With `CCn1cc(-c2ccnc(NC(=O)C3CC3C)c2)c(-c2ccc(F)cc2)n1` (stereo not drawn) [Compound 341], the figures for the pest or weed control at 500 ppm in the data set on Alternaria solani and in the data set with Sphaerotheca fuliginea were 95% and 100%, respectively. In the data set “physchem” (LogPA), this compound gave a chromatographic logP of 2.16.

Consider `CC(CC#N)n1cc(-c2ccnc(NC(=O)CC3CC3)c2)c(-c2ccc(F)cc2)n1` (stereo not drawn) [Compound 315], for which the pest or weed control at 500 ppm in the data set on Alternaria solani and in the data set with Sphaerotheca fuliginea was 95% each time. The compound also had a chromatographic logP in “physchem” (LogPA) of 2.28.

Turning to `CCn1cc(-c2ccnc(NC(=O)[C@H](C)O)c2)c(-c2ccc(F)cc2)n1` [Compound 352], the pest or weed control at 500 ppm is 95% in the data set on Alternaria solani and 73% in the data set with Sphaerotheca fuliginea. Also, the chromatographic logP in the data set “physchem” (LogPA) was 1.83.

As to `CC(C)C(=O)Nc1cc(-c2cn(C(C)CC#N)nc2-c2ccc(F)cc2)ccn1` (stereo not drawn) [Compound 314], the pest or weed control at 500 ppm with Alternaria solani and with Sphaerotheca fuliginea was 100% throughout. Also, in the data set “physchem” (LogPA), the chromatographic logP came to 1.29.

For the compound `CC(C)n1cc(-c2ccnc(NCc3ccccc3)n2)c(-c2ccc(F)cc2)n1` [Compound 369], the figures for the pest or weed control at 500 ppm with Alternaria solani and in the data set on Sphaerotheca fuliginea were 90% and 88%, respectively. Moreover, the chromatographic logP in “physchem” (LogPA) came to 3.31.

With `CC(C)Cn1cc(-c2ccnc(NC(C)(C)C)n2)c(-c2ccc(F)cc2)n1` [Compound 284], the pest or weed control at 500 ppm in the data set on Alternaria solani was 100%; in the data set on Sphaerotheca fuliginea, 91%. In “physchem” (LogPA), the chromatographic logP stood at 2.94.

As for `CCC(=O)Nc1cc(-c2cn(CCC#N)nc2-c2ccc(F)cc2)ccn1` [Compound 303], the values for the pest or weed control at 500 ppm with Alternaria solani and with Sphaerotheca fuliginea were 100% and 95%, respectively. Further, the chromatographic logP in “physchem” (LogPA) worked out at 1.63.

With `CC(C)C(=O)Nc1cc(-c2cn(C)nc2-c2ccc(F)cc2)ccn1` [Compound 298], the values for the pest or weed control at 500 ppm in the data set with Alternaria solani and with Sphaerotheca fuliginea were 80% and 100%, respectively. The chromatographic logP in the data set “physchem” (LogPA) turned out to be 1.83.

For the compound `CC(c1ccccc1F)n1cc(-c2ccnc(NC(=O)CC3CC3)c2)c(-c2ccc(F)cc2)n1` (stereo not drawn) [Compound 250], the pest or weed control at 500 ppm in the data set on Alternaria solani is 94%; in the data set on Sphaerotheca fuliginea, 84%. The chromatographic logP in “physchem” (LogPA) turned out to be 3.54.

For the compound `CCn1cc(-c2ccnc(NC(C)=O)c2)c(-c2ccc(F)cc2)n1` [Compound 342], the pest or weed control at 500 ppm was 95% in the data set with Alternaria solani and 94% in the data set on Sphaerotheca fuliginea. The compound also had a chromatographic logP in “physchem” (LogPA) of 1.57.

As for `CCC(=O)Nc1cc(-c2cn(C(C(=O)OC)C(C)C)nc2-c2ccc(F)cc2)ccn1` (stereo not drawn) [Compound 274], the pest or weed control at 500 ppm in the data set with Alternaria solani was determined as 95%; in the data set on Sphaerotheca fuliginea, 94%. In addition, in the data set “physchem” (LogPA), the chromatographic logP was found to be 2.67.

As for `COCC(=O)Nc1cc(-c2cn(C(C)CC#N)nc2-c2ccc(F)cc2)ccn1` (stereo not drawn) [Compound 313], the pest or weed control at 500 ppm in the data set on Alternaria solani was determined as 95%; in the data set with Sphaerotheca fuliginea, 98%. The compound further yielded a chromatographic logP in “physchem” (LogPA) of 2.17.

Take `CC(C)CC(=O)Nc1cc(-c2cn(C)nc2-c2ccc(F)cc2)ccn1` [Compound 347]: the pest or weed control at 500 ppm with Alternaria solani and with Sphaerotheca fuliginea was 95% throughout. In the data set “physchem” (LogPA), this compound came in with a chromatographic logP of 2.12.

With `CSCCn1cc(-c2ccnc(NC(=O)C(C)C)c2)c(-c2ccc(F)cc2)n1` [Compound 306], the pest or weed control at 500 ppm in the data set on Alternaria solani was determined as 95%; with Sphaerotheca fuliginea, 94%. In addition, the chromatographic logP in the data set “physchem” (LogPA) came out at 2.44.

As for `CCC(C)C(=O)Nc1cc(-c2cn(CC)nc2-c2ccc(F)cc2)ccn1` (stereo not drawn) [Compound 340], the pest or weed control at 500 ppm in the data set on Alternaria solani and with Sphaerotheca fuliginea was 95% throughout. In the data set “physchem” (LogPA), this compound had a chromatographic logP of 2.42.

For the compound `CCn1cc(-c2ccnc(NC(=O)C(N)=O)c2)c(-c2ccc(F)cc2)n1` [Compound 351], the figures for the pest or weed control at 500 ppm in the data set on Alternaria solani and with Sphaerotheca fuliginea were 95% and 80%, respectively. The chromatographic logP in “physchem” (LogPA) is 1.99.

Consider `CC(C)C(=O)Nc1cc(-c2cn(C3CC3)nc2-c2ccc(F)cc2)ccn1` [Compound 322], for which the pest or weed control at 500 ppm with Alternaria solani and in the data set on Sphaerotheca fuliginea was 95% in each case. In the data set “physchem” (LogPA), the chromatographic logP was found to be 2.32.

Take `CCn1cc(-c2ccnc(NC(=O)CC3CC3)c2)c(-c2ccc(F)cc2)n1` [Compound 291]: the pest or weed control at 500 ppm in the data set with Alternaria solani is 100%; in the data set with Sphaerotheca fuliginea it was 95%. The chromatographic logP in the data set “physchem” (LogPA) was determined as 2.29.

Turning to `Cn1cc(-c2ccnc(NC(=O)CC3CC3)c2)c(-c2ccc(F)cc2)n1` [Compound 299], the values for the pest or weed control at 500 ppm with Alternaria solani and in the data set with Sphaerotheca fuliginea were 100% and 84%, respectively. This compound gave a chromatographic logP in the data set “physchem” (LogPA) of 1.98.

As to `CC(C)Cn1cc(-c2ccnc(NC(=O)CC3CC3)c2)c(-c2ccc(F)cc2)n1` [Compound 158], the values for the pest or weed control at 500 ppm in the data set with Alternaria solani and in the data set on Sphaerotheca fuliginea were 94% and 97%, respectively. Moreover, the chromatographic logP in the data set “physchem” (LogPA (logP of the stated pure compound or, in a mixture, of the main isomer, 1-substituted 3-aryl-1H-pyrazole)) came to 3.03.

As for `CCC(=O)Nc1cc(-c2c(-c3ccc(F)cc3)nn(C)c2OC(F)F)ccn1` [Compound 316], the pest or weed control at 500 ppm came to 100% in the data set on Alternaria solani and 75% in the data set on Sphaerotheca fuliginea. Besides, in “physchem” (LogPA), the chromatographic logP worked out at 2.33.

As for `Cn1cc(-c2ccnc(NC(=O)C3CCC3)c2)c(-c2ccc(F)cc2)n1` [Compound 349], the pest or weed control at 500 ppm in the data set with Alternaria solani turned out to be 80%; with Sphaerotheca fuliginea, 95%. In the data set “physchem” (LogPA), this compound gave a chromatographic logP of 1.93.

Consider `Cc1cn(-c2cc(-c3cn(C(C)C)nc3-c3ccc(F)cc3)ccn2)cn1` [Compound 283], for which the pest or weed control at 500 ppm in the data set on Alternaria solani turned out to be 95%; in the data set with Sphaerotheca fuliginea, 78%. In the data set “physchem” (LogPA), this compound yielded a chromatographic logP of 2.05.

As for `O=C(CC1CC1)Nc1cc(-c2cn(Cc3ccccc3F)nc2-c2ccc(F)cc2)ccn1` [Compound 253], the pest or weed control at 500 ppm in the data set with Alternaria solani stood at 94%; with Sphaerotheca fuliginea, 92%. This compound also yielded a chromatographic logP in the data set “physchem” (LogPA) of 3.17.

In the case of `CC(C)n1cc(-c2ccnc3[nH]cnc23)c(-c2ccc(F)cc2)n1` [Compound 280], the pest or weed control at 500 ppm in the data set on Alternaria solani is 95%; in the data set on Sphaerotheca fuliginea, 93%. The compound also returned a chromatographic logP in the data set “physchem” (LogPA) of 1.82.

Take `CCn1cc(-c2ccnc(NC(=O)CC(C)C)c2)c(-c2ccc(F)cc2)n1` [Compound 339]: the pest or weed control at 500 ppm with Alternaria solani and in the data set with Sphaerotheca fuliginea was 95% throughout. Besides, in the data set “physchem” (LogPA), the chromatographic logP worked out at 3.47.

`Cc1c(-c2ccncc2)c(-c2ccc(F)cc2)nn1CC(C)C` [Compound 368]: the values for the pest or weed control at 500 ppm in the data set on Alternaria solani and with Sphaerotheca fuliginea were 95% and 94%, respectively. Also, the chromatographic logP in the data set “physchem” (LogPA) turned out to be 2.07.

As for `COCC(=O)Nc1cc(-c2cn(C)nc2-c2ccc(F)cc2)ccn1` [Compound 297], the pest or weed control at 500 ppm with Alternaria solani was determined as 100%; with Sphaerotheca fuliginea it was 90%. This compound had a chromatographic logP in the data set “physchem” (LogPA) of 1.89.

Turning to `CCn1cc(-c2ccnc(NC(=O)C(C)C)c2)c(-c2ccc(F)cc2)n1` [Compound 290], the pest or weed control at 500 ppm in the data set on Alternaria solani and in the data set on Sphaerotheca fuliginea was 100% each time. This compound also showed a chromatographic logP in the data set “physchem” (LogPA) of 2.14.

Regarding `CC(C)Cn1cc(-c2ccncc2-c2ccc(F)cc2)c(-c2ccc(F)cc2)n1` [Compound 228], the pest or weed control at 500 ppm in the data set with Alternaria solani is 70%; in the data set on Sphaerotheca fuliginea, 75%. This compound came in with a chromatographic logP in “physchem” (LogPA) of 2.96.

As to `CC(=O)Nc1cc(-c2cn(C)nc2-c2ccc(F)cc2)ccn1` [Compound 350], the pest or weed control at 500 ppm with Alternaria solani was 95%; in the data set on Sphaerotheca fuliginea it was 94%. In the data set “physchem” (LogPA), this compound had a chromatographic logP of 1.32.

As to `CCC(C)Nc1nccc(-c2cn(CC(C)C)nc2-c2ccc(F)cc2)n1` (stereo not drawn) [Compound 286], the pest or weed control at 500 ppm with Alternaria solani was determined as 90%; in the data set with Sphaerotheca fuliginea, 89%. For the same compound, in the data set “physchem” (LogPA), the chromatographic logP amounted to 2.68.

`CC(C)C(=O)Nc1cc(-c2cn(C(C)C3CC3)nc2-c2ccc(F)cc2)ccn1` (stereo not drawn) [Compound 307]: the pest or weed control at 500 ppm in the data set with Alternaria solani and with Sphaerotheca fuliginea was 100% in each case. This compound also gave a chromatographic logP in “physchem” (LogPA) of 2.9.

With `CC(C)Cn1cc(-c2ccnc(NC3CC3)n2)c(-c2ccc(F)cc2)n1` [Compound 281], the pest or weed control at 500 ppm amounted to 95% with Alternaria solani and 94% in the data set on Sphaerotheca fuliginea. Moreover, the chromatographic logP in “physchem” (LogPA) was determined as 2.41.

Take `COCC(C)Nc1nccc(-c2cn(CC(C)C)nc2-c2ccc(F)cc2)n1` (stereo not drawn) [Compound 285]: the pest or weed control at 500 ppm with Alternaria solani was found to be 95%; with Sphaerotheca fuliginea, 89%. In addition, the chromatographic logP in “physchem” (LogPA) was 2.39.
